Test results published in patent publication US8895520B2, “Method for treating a human patent suffering from Myeloid Neoplasias using 5-aminoimidazole-4-carboxamide” (Universite Nice Sophia Antipolis, priority 2011, dated 2014).

Legend:
[1] = tested on: bone marrow cells of 8 AZA-resistant patients; test: XTT cell metabolism assay on bone marrow cells of AZA-resistant patients; type: cell-based, human; conditions: 1 mM Acadesine
Method: For this experiment, bone marrow cells of 8 AZA-resistant patients were treated with 1 μM Azacitidine or 1 mM Acadesine. Cell metabolism was assessed using the XTT assay. Results represent the mean+/−SEM of three independent experiments achieved in quadruplicates.
(§1) In the following examples, bone marrow samples were collected from 15 patients treated by Azacitidine. […] The diagnosis of MDS or AML was based on standard WHO criteria (Vardiman et al., Blood 2009). Patients were to receive Azacitidine at the FDA/EMEA approved schedule (75 mg/m^2/d, 7 d/4 weeks). Patients having received one or more than one cycle of Azacitidine and who had bone marrow evaluation after at least four cycles, or who died or progressed before completion of four cycles were considered evaluable (the last two groups were considered as treatment failures). Responses were scored according to IWG 2006 criteria for MDS and to Cheson et al. (JCO 2003) for AML.
(§2) Acadesine efficiency was next investigated on fifteen primary cell samples from MDS or AML patients treated or not by AZA. Samples from seven Azacitidine sensitive patients (FIG. 12) and eight samples from Azacitidine resistant patients were included in this experiment and analyzed by the XTT assay (FIG. 13). As previously described for AZA-R SKM1 cells, Acadesine was more efficient to kill cells from Azacitidine resistant patients.

AZA-R SKM1 cells [2] = test: Cathepsin B activity assay in AZA-R SKM1 cells; type: cell-based, human
Method: (§3) For this experiment cells were incubated for increasing times with 1 μM AZA. Cell extracts were prepared and Cathepsin B activity determined in quadruplicatesusing Z-RR-AMC as substrates. […] In this experiment cells were incubated for 24 h with 1 μM Azacitidine or 1 mM ACA. Cell extracts were prepared and Cathepsin B activity was determined in quadruplicates using Z-RR-AMC as substrate. For these Cathepsin B assays, 10^6 cells/mL were incubated for different times at 37° C. with 1 μM Azacitine. After stimulation, cells were lysed for 30 min at 4° C. Cellular extracts were incubated in 96-well plates with […] (Cathepsin B) as substrate. This experiment was performed in quadruplicates and repeated at least three times.

[3] = tested on: bone marrow cells of 7 AZA-sensitive patients; test: XTT cell metabolism assay on bone marrow cells of AZA-sensitive patients; type: cell-based, human; conditions: bone marrow cells of AZA-sensitive patients (n=7), 1 mM Acadesine
Method: For this experiment, bone marrow cells of 7 AZA-sensitive patients were treated with 1 μM Azacitidine or 1 mM Acadesine. Cell metabolism was assessed using the XTT assay. Results represent the mean+/−SEM of three independent experiments achieved in quadruplicates.
as §1, §2

AZA-S SKM1 cells [4] = test: Caspase 3 / caspase 9 activity assay in AZA-S SKM1 cells; type: cell-based, human
Method: (§4) FIG. 1 illustrates AZA-induced apoptosis in AZA-SKM1 cells as assessed by caspase 3 assay. In this figure, cells were incubated for different times with 1 μM Azacitidine. Caspase activities were determined in quadruplicates using 0.2 mM Ac-DEVD-AMC as substrate.
(§5) FIG. 2 illustrates AZA-induced apoptosis in AZA-SKM1 cells as assessed by caspase 9 assay. In this figure, cells were incubated for different times with 1 μM Azacitidine. Caspase activities were determined in quadruplicates using 0.2 mM Ac-LEHD-AMC as substrate.
(§6) In this experiment, cells were incubated for 24 h with 1 μM Azacitidine or 1 mM ACA. Cell extracts were then prepared and caspase activities were determined in quadruplicates using 0.2 mM Ac-DEVD-AMC as substrate.
(§7) For these caspase assays, 10^6 cells/mL were incubated for different times at 37° C. with 1 μM Azacitidine. After stimulation, cells were lysed for 30 min at 4° C. Cellular extracts were incubated in 96-well plates with either Ac-DEVD-AMC (caspase 3) or Ac-LEHD-AMC (caspase 9) as substrates. Each experiment was performed in quadruplicates and repeated at least three times.

AZA-R SKM1 cells [5] = test: Caspase 3 / caspase 9 activity assay in AZA-R SKM1 cells; type: cell-based, human
Method: as §4, §5, §6, §7

[6] = tested on: AZA-resistant patient bone marrow cells; test: LC3 I / LC3 II western blot on AZA-resistant patient bone marrow cells; type: cell-based, human; conditions: one Azacitidine resistant patient, 1 mM Acadesine, 24 h
Method: In this experiment LC3 I and LC3 II expression was assessed by Western-Blot on cell extracts prepared from AZA-resistant patient bone marrow cells incubated for 24 h with 1 mM Acadesine.
as §2

AZA-R SKM1 cells [7] = test: cells; type: cell-based; conditions: Homo sapiens
Method: (§8) FIGS. 6 and 7 illustrate respectively the efficiency of acadesine in SKM1-S and SKM1-R cells. In FIG. 6, AZA-S SKM1 cells were incubated for 24 h with increased doses of ACA (acadesine). In FIG. 7, AZA-R SKM1 cells were incubated for 24 h with increased doses of ACA. Cell metabolism was then assessed by using the XTT assay in both assays. Results represent the mean+/−SEM of three independent experiments made in quadruplicates.
FIGS. 10 and 11 illustrate the efficacy of acadesine in AZA-S and AZA-R cells. […] For this experiment, AZA-S SKM1 cells were incubated for 24 h with 1 μM Azacitidine or 1 mM Acadesine in either the presence or the absence of 50 μM Z-VAD-fmk. Cell metabolism was assessed using the XTT assay. Results represent the mean+/−SEM of three independent experiments achieved in quadruplicates. […] For this experiment, AZA-R SKM1 cells were incubated for 24 h with 1 μM Azacitidine or 1 mM Acadesine in either the presence or the absence of 50 μM Z-VAD-fmk. Cell metabolism was assessed using the XTT assay. Results represent the mean+/−SEM of three independent experiments achieved in quadruplicates. […]
For the cell metabolism assessment, 15×10^3 cells were incubated in a 96-well plate for different times with various concentrations of Azacitidine in a final volume of 100 μL. […] The absorbance of the formazan product, reflecting cell metabolism, was measured at 490 nM. […]

AZA-S SKM1 cells [8] = test: XTT cell metabolism assay in AZA-S SKM1 cells; type: cell-based, human; conditions: for cell metabolism (XTT) / inhibitory effect on cell metabolism in presence of Z-VAD-fmk: 24 h; for inhibitory effect on cell metabolism in presence of Z-VAD-fmk: 50 μM Z-VAD-fmk
Method: as §8
FIGS. 10 and 11 illustrate the efficacy of acadesine in AZA-S and AZA-R cells. […] For this experiment, AZA-S SKM1 cells were incubated for 24 h with 1 μM Azacitidine or 1 mM Acadesine in either the presence or the absence of 50 μM Z-VAD-fmk. Cell metabolism was assessed using the XTT assay. Results represent the mean+/−SEM of three independent experiments achieved in quadruplicates. […] For this experiment, AZA-R SKM1 cells were incubated for 24 h with 1 μM Azacitidine or 1 mM Acadesine in either the presence or the absence of 50 μM Z-VAD-fmk. Cell metabolism was assessed using the XTT assay. Results represent the mean+/−SEM of three independent experiments achieved in quadruplicates.
For the cell metabolism assessment, 15×10^3 cells were incubated in a 96-well plate for different times with various concentrations of Azacitidine in a final volume of 100 μL. After 16, 24 or 48 h, 50 μL of XTT reagent was added to each well. The absorbance of the formazan product, reflecting cell metabolism, was measured at […]. Each assay was performed in quadruplicate.
The cell metabolism assessment was made in an identical manner as described in example 3.

[9] = tested on: high-risk Myelodysplasic syndrome (MDS) or acute myeloid leukemia (AML) patients; conditions: cited from earlier work
AZA-S SKM1 cells [10] = test: Autophagy western blot (LC3-I/LC3-II, P-S6) in AZA-S SKM1 cells; type: cell-based, human; conditions: 1 μM AZA
Method: (§9) FIG. 4 illustrates increased basal autophagy and decreased AZA-mediated autophagy in AZA-R cells. In this experiment, cells were incubated for increasing times with 1 μM AZA. LC3-I and LC3-II, S6 ribosomal protein (P-S6), and its phosphorylated form were visualized by western blot.
(§10) For the Western Blot analysis, cells were first stimulated by 1 μM Azacitidine for the indicated times, then cells were harvested and lysed in buffer containing 1% Triton X-100 and supplemented with protease and phosphatase inhibitors (Roche Diagnostics) as previously described. Lysates were pelleted, and 50 μg of protein were analyzed by SDS-PAGE.

AZA-R SKM1 cells [11] = test: Autophagy western blot (LC3-I/LC3-II, P-S6) in AZA-R SKM1 cells; type: cell-based, human; conditions: 1 μM AZA
Method: as §9, §10

AZA-S SKM1 cells [12] = test: Cathepsin B activity assay in AZA-S SKM1 cells; type: cell-based, human; conditions: Azacitidine
Method: as §3

AZA-R SKM1 cells [13] = test: PARP cleavage by western blot in AZA-R SKM1 cells; type: cell-based, human; conditions: 1 μM Azacitidine, 16 h
Method: as §10, with “In this experiment, PARP cleavage was assessed by western-blot on cell extracts prepared from AZA-S and AZA-R cells incubated for 16 h with 1 μM Azacitidine. For” for “For”

NC(=O)c1ncn([C@@H]2O[C@H](CO)[C@@H](O)[C@H]2O)c1N [Acadesine, acadesine]
cell metabolism (XTT) [1]: strongly inhibits cell metabolism | Cathepsin B activity (AZA-R SKM1 cells [2]; 1 mM ACA, 24 h): increase of Cathepsin B activity | cell metabolism (XTT) [3]: inhibits cell metabolism | apoptosis (caspase activity, Ac-DEVD-AMC) (AZA-S SKM1 cells [4]; 1 mM ACA, 24 h): does not induce apoptosis | apoptosis (caspase activity, Ac-DEVD-AMC) (AZA-R SKM1 cells [5]; 1 mM ACA, 24 h): does not induce apoptosis | induction of autophagy (conversion of LC3-I into LC3-II) [6]: induction of autophagy by Acadesine was confirmed | cytotoxicity at 1000 µM (AZA-R SKM1 cells [7]; SKM-1, 24 h, read-out: reduction of cell viability): 60% | IC50 (AZA-R SKM1 cells [7]; SKM-1, AZA-R SKM1 cells, 24 h, XTT assay, read-out: half-maximal inhibition of cell metabolism): 250 µM | cell metabolism (XTT) (AZA-S SKM1 cells [8]; 1 mM Acadesine): drastically inhibited cell metabolism | inhibitory effect on cell metabolism in presence of Z-VAD-fmk (AZA-S SKM1 cells [8]; 1 mM Acadesine): independently of caspases | IC50 (AZA-S SKM1 cells [8]; Homo sapiens, SKM-1, 24 h, XTT assay, read-out: half-maximal inhibition of cell metabolism): 250 µM

Nc1ncn([C@@H]2O[C@H](CO)[C@@H](O)[C@H]2O)c(=O)n1 [Azacitidine]
Cathepsin B activity (AZA-R SKM1 cells [2]; 1 μM AZA, increasing times): increased | proportion of patients refractory [9]: approximately 40% | ribosomal protein S6 phosphorylation (index of mTOR inhibition) (AZA-S SKM1 cells [10]): inhibition of ribosomal protein S6 phosphorylation | LC3-II accumulation (autophagy) (AZA-S SKM1 cells [10]; increasing times): time-dependent accumulation of LC3-II | caspase 3 activation (hydrolysis of Ac-DEVD-AMC) (AZA-S SKM1 cells [4]; 1 μM Azacitidine, 8-16 h): induced | caspase 9 activation (hydrolysis of LEHD-AMC) (AZA-S SKM1 cells [4]; 1 μM Azacitidine, 8-16 h): induced | caspase 3 activity (Ac-DEVD-AMC) (AZA-S SKM1 cells [4]; 1 μM Azacitidine, 24 h): induced caspase 3 activity | caspase 3 activation (hydrolysis of Ac-DEVD-AMC) (AZA-R SKM1 cells [5]; 1 μM Azacitidine): no caspase activities was induced | caspase 9 activation (hydrolysis of LEHD-AMC) (AZA-R SKM1 cells [5]; 1 μM Azacitidine): no caspase activities was induced | caspase 3 activity (Ac-DEVD-AMC) (AZA-R SKM1 cells [5]; 1 μM Azacitidine, 24 h): no increase | ribosomal protein S6 phosphorylation (index of mTOR inhibition) (AZA-R SKM1 cells [11]): inhibition of ribosomal protein S6 phosphorylation | LC3-II accumulation (autophagy) (AZA-R SKM1 cells [11]; increasing times): not further stimulated | Cathepsin B activity (AZA-S SKM1 cells [12]): induces | cleavage of PARP (western blot) (AZA-R SKM1 cells [13]): no AZA-mediated cleavage of PARP was detected | cell metabolism (XTT) (AZA-S SKM1 cells [8]; 1 μM Azacitidine): efficiently reduced cell metabolism | inhibitory effect on cell metabolism in presence of Z-VAD-fmk (AZA-S SKM1 cells [8]; 1 μM Azacitidine): reverted by Z-VAD-fmk
